According to patent publication US11535599B2, “Benzisoxazole derivative” (Sumitomo Pharma Co., Ltd., priority 2020, dated 2022):

How the values were obtained:
[1] = Dynamic vapor adsorption (DVS), hygroscopicity; assay type: physicochemical; conditions: 0-90% RH, 25° C.
Experimental: Dynamic vapor adsorption: the hygroscopicity was evaluated with a dynamic vapor adsorption (DVS) instrument (IGAsorp, Hiden Isochema, Warrington, England) at room temperature. The water adsorption/desorption was studied as a function of relative humidity (RH) in the range of 0-90% at 25° C. The relative humidity in the chamber was made to increase by 10% RH, and the humidity was retained until the humidity state of the atmosphere and the weight variation of solid achieved equilibrium. The equilibration test was continued until the test was passed or failed 5 or 10 hours later. At this time point, RH increased by 10%, and the absorption process was repeated until the RH achieved to 90% RH and the humidity state achieved equilibrium. During the test, the moisture sorption was being monitored. For the desorption, the relative humidity was decreased in a similar manner to measure a perfect adsorption/desorption cycle. The cycle was repeated as appropriate. All the experiments were operated in dm/dt mode (weight variation over time) to determine each equilibrating endpoint. About 5-10 mg of the solid was used. The date analyses were carried out with Hisorp v4.02 (Hiden Isochema, Warrington, England).

[2] = Thermogravimetric analysis (TGA); assay type: physicochemical; conditions: until melting temperature
Experimental: Thermogravimetric analysis: the thermogravimetric analysis (TGA) was carried out with a TGA instrument (TGA Q500, TA Instruments, New Castle, Del., USA). For each trial, about 1-10 mg of the solid sample was put in an open aluminium pot, and heated at a rate of 5-10° C./min under a nitrogen purge of 60 mL/min. The data analysis was carried out with Universal Analysis 2000 Version 4.1D (TA Instruments, New Castle, Del., USA).

[3] = Differential scanning calorimetry (DSC); assay type: physicochemical
Experimental: Differential scanning calorimetry: the thermal characteristic was evaluated with a differential scanning calorimetry (DSC) instrument (DSCQ1000, TA Instruments, New Castle, Del., USA). For each trial, about 1-10 mg of the solid sample was put in a standard aluminium pot aerated with a pinhole, and heated at a rate of 5-10° C./min under a nitrogen purge of 50 mL/min. The data analysis was carried out with Universal Analysis 2000 Version 4.1D (TA Instruments, New Castle, Del., USA).

[4] = Shaking suspensions of crystalline forms in solvents (form conversion); assay type: physicochemical; conditions: shaking forms I-III in several kinds of solvents for 9-11 days
Experimental: Crystalline Example 13 of form III can be prepared by shaking a suspension of Example 13 in an organic solvent (e.g. ethanol, chloroform, acetonitrile, tetrahydrofuran, ethyl acetate, acetone, and tetrahydrofuran/heptane mixture (1:1)) at about 50° C. for 9-11 days. Or, it can be prepared by shaking a suspension of Example 13 in an organic solvent (e.g. acetonitrile, ethyl acetate, acetone, acetone/water mixture (1:1), and tetrahydrofuran/heptane mixture (1:1)) at about 25° C. for 9-11 days. Or, it can be prepared by shaking a suspension of a mixture of forms I and II of Example 13 in an organic solvent (e.g. ethanol, 2-propanol, chloroform, acetonitrile, tetrahydrofuran, ethyl acetate, acetone, and tetrahydrofuran/heptane mixture (1:1)) at about 50° C. for 9-11 days. Or, it can be prepared by shaking a suspension of a mixture of forms I and II of Example 13 in an organic solvent (e.g. 2-propanol, chloroform, acetonitrile, tetrahydrofuran, ethyl acetate, acetone, methanol/water mixture (1:1), 2-propanol/water mixture (1:1), acetone/water mixture (1:1), and tetrahydrofuran/heptane mixture (1:1)) at about 25° C. for 9-11 days. Or, it can be prepared by heating a solution of Example 13 in tert-butyl methyl ether at about 80° C. for about one hour, and leaving the solution to stand at room temperature for a day. […]

[5] = test system: oxaliplatin chemotherapy-induced peripheral neuropathy model; experiment: Anti-allodynia effect in chemotherapy-induced peripheral neuropathy model (acetone test); assay type: in vivo, rat; conditions: Example 13 100 mg/kg oral once a day 17 times; duloxetine 30 mg/kg oral single
From the text: As one of chemotherapy-induced peripheral neuropathy, sensory disturbance due to neuropathy caused by a platinating agent that is an anticancer agent such as cisplatin and oxaliplatin is known, and the symptom is difficult to be recovered even after the medication is discontinued. The therapeutic effect for sensory disturbance caused by repetitive administration of oxaliplatin was studied in the present test.
To male Crl: CD (SD) rats (7 weeks old) (CHARLES RIVER LABORATORIES JAPAN, INC.), oxaliplatin (5 mg/kg) was intraperitoneally administered for the two consecutive days in a week, totally 6 times, to prepare chemotherapy-induced peripheral neuropathy models. The compound of Example 13 (100 mg/kg) was repeatedly orally administered once a day, totally 17 times. […] In the acetone test, 0.1 mL of acetone was sprayed to the foot sole of the rat hind paw, and the reaction was evaluated according a scoring (Cold Score). When there was no reaction for 20 seconds after spraying acetone, Score 0 was recorded and the observation was stopped. When there was any reaction for the 20 seconds, the observation was continued until 40 seconds after spraying, and the score was recorded according to the evaluation scale. The acetone spray was done twice each for right and left hind paws, and the total score was calculated. […]

[6] = test system: reserpine-induced Parkinson's disease model mouse; experiment: Potentiating effect of levodopa-induced hyperactivity in reserpine-induced Parkinson's disease model mouse; assay type: in vivo; conditions: Examples 12.5 or 25 mg/kg oral; rasagiline 3 or 10 mg/kg; with levodopa 200 mg/kg i.p.
Experimental: Dopamine-depleted mice due to reserpine treatment are model mice of akinesia symptoms in Parkinson's disease, said symptoms are relieved with levodopa (L-DOPA). The effect of the present compounds for potentiating the levodopa's effect was tested.
In the present test, male Crl: CD1 (ICR) mice (CHARLES RIVER LABORATORIES JAPAN, INC.) were used. 20-24 hours before starting the movement measurement, reserpine (3 mg/kg) was intraperitoneally administered to the mouse. One hour before starting the movement measurement, the present compound (12-.5 mg/kg or 25 mg/kg of. Examples 1, 2, 3, 4, and 5) was orally administered to the mouse. Shortly before starting the movement measurement, levodopa (200 mg/kg) with benserazide whose amount was ¼ of levodopa in free form was intraperitoneally administered to the mouse. The movement measurement was carried out for 90 minutes, and each total movement was compared.

[7] = test system: unilateral lesion model of nigrostriatal dopamine neuron induced with 6-OHDA; experiment: Extending duration of levodopa-induced rotational behavior in 6-OHDA unilateral lesion model; assay type: in vivo, rat; conditions: Examples 10 or 30 mg/kg oral; rasagiline 0.6 mg/kg; with levodopa 5 mg/kg i.p.
[8] = test system: levodopa-induced dyskinesia in 6-OHDA unilateral lesion model; experiment: Effect for inhibiting levodopa-induced dyskinesia; assay type: in vivo, rat; conditions: Examples 30 or 100 mg/kg, rasagiline 0.2 or 0.6 mg/kg, daily for two weeks
From the text: A unilateral lesion model of nigrostriatal dopamine neuron induced with 6-hydroxydopamine (6-OHDA) is broadly used for evaluating the drug efficacy for treating Parkinson's disease, as mentioned in Test 2. In addition, it is known that dyskinesia is developed when the present model receives repetitive administration of levodopa, which is similar to the phenomenon that patients of Parkinson's disease who have received long-term administration of levodopa develop dyskinesia. With the present model, the effect of the present compound on the dyskinesia induced by repetitive administration of levodopa was evaluated. As shown in Test 2, a unilateral lesion model of nigrostriatal dopamine neuron was prepared. One day before starting the repetitive administration of levodopa, levodopa methyl ester hydrochloride (5.86 mg/kg) containing benserazide hydrochloride ([…]) (whose ratio was 4:1 in terms of free form) was intraperitoneally administered to the model, and the rotational behavior of the model was observed from 20 minutes to 140 minutes after the administration. The models were classified considering three factors of the total rotation number (20-140 minutes after the administration), the later term of the rotation (120-140 minutes after the administration), and the rotational duration, so that the dispersion of each group could be equal. Two days after the classification, the repetitive administration of levodopa methyl ester hydrochloride (6 mg/kg) and benserazide hydrochloride (12 mg/kg) once a day for two weeks was started. […] The evaluation of dyskinesia was done after one week and two weeks of the repetitive administration. […]

SMILES: C[C@H](c1noc2ccccc12)S(N)(=O)=O [Example 13 form I, (1R)-1-(1,2-benzoxazol-3-yl)ethane-1-sulfonamide]
- weight variation in DVS [1]: ≤ 1%
- weight reduction in TGA [2]: no weight reduction
- crystalline stability (DSC) [3]: high

SMILES: C[C@H](c1noc2ccccc12)S(N)(=O)=O [Example 13 form III, (1R)-1-(1,2-benzoxazol-3-yl)ethane-1-sulfonamide]
- relative stability of crystalline forms [4]: most stable form

SMILES: CNCC[C@H](Oc1cccc2ccccc12)c1cccs1 [duloxetine, reference compound]
- Cold Score in acetone test [5]: significantly lower Cold Score

SMILES: C#CCN[C@@H]1CCc2ccccc21 [rasagiline, reference compound]
- levodopa-induced hyperactivity (total movement, 90 minutes) [6]: a tendency to increase the movement, but the increase had no statistically-significant difference
- rotational number in the late phase (100-120 minutes) [7]: significantly increased the rotational number in the late phase
- dyskinesia induced by repetitive administration of levodopa (AIMS score) [8]: significantly got worse
